This passage reports EC50 results from US9616099B2, “Cyclosporin analogues for preventing or treating hepatitis C infection” (Enanta Pharmaceuticals, Inc., priority 2013, dated 2017).

Numbered stars: 1 amine (or outer) side, 2 acyl side, 3 side chain; on linkers, the order of the positions; unused ones are H or OH. Square brackets hold non-standard residues; d marks the D form. Peptide text beside a SMILES is read from it. * marks the point of attachment. X2 = CON(C)C(=O)OCCCC[C@@H](C)[C@@H](O)[C@@H](C(=O)[*:2])N(C)[*:1]; X10 = C[C@H](CCOC(=O)NC1CC1)[C@@H](O)[C@@H](C(=O)[*:2])N(C)[*:1]; X5 = C[C@H](CCCCOC(=O)N(C)C)[C@@H](O)[C@@H](C(=O)[*:2])N(C)[*:1]; X9 = C[C@H](CCCCN=[N+]=[N-])[C@@H](O)[C@@H](C(=O)[*:2])N(C)[*:1]; X7 = CCOC(=O)NCCCC[C@@H](C)[C@@H](O)[C@@H](C(=O)[*:2])N(C)[*:1]; X8 = CCOC(=O)OCCCC[C@@H](C)[C@@H](O)[C@@H](C(=O)[*:2])N(C)[*:1]; X1 = COC(=O)NCCCC[C@@H](C)[C@@H](O)[C@@H](C(=O)[*:2])N(C)[*:1]; X4 = COC(=O)OCCCC[C@@H](C)[C@@H](O)[C@@H](C(=O)[*:2])N(C)[*:1]; X3 = CC(=O)NCCCC[C@@H](C)[C@@H](O)[C@@H](C(=O)[*:2])N(C)[*:1]; NMe(dihydroBmt) = CCCC[C@@H](C)[C@@H](O)[C@H](NC)C(=O)O; X6 = C[C@H](CCCCN)[C@@H](O)[C@@H](C(=O)[*:2])N(C)[*:1]; Butyl(4-morpholino) = C(CC*)CN1CCOCC1; NMeT = CN[C@H](C(=O)O)[C@@H](C)O; NMeL = CN[C@@H](CC(C)C)C(=O)O; NMeV = CN[C@H](C(=O)O)C(C)C; dNMeA = CN[C@H](C)C(=O)O; Abu = CC[C@H](N)C(=O)O

The test system of the experiment is HCV 1a genotype replicon. As to the kind of experiment: microbe, parasite or virus in culture. The experiment is classed as cell-based. Conditions: Hepatitis C virus; HCV genotype 1a replicon, luciferase assay, 72 hours; read-out: EC50 (Ia) Genotype-1a Replicon EC50.
One may read the EC50 as the concentration at which the effect is half-maximal. As to `CC[C@@H]1NC(=O)[C@H]([C@H](O)[C@H](C)CCOC(=O)NC2CC2)N(C)C(=O)[C@H](C(C)C)N(C)C(=O)[C@H](CC(C)C)N(C)C(=O)[C@H](CC(C)C)N(C)C(=O)[C@@H](C)NC(=O)[C@H](C)NC(=O)[C@H](CC(C)C)N(C)C(=O)[C@H](C(C)C)NC(=O)[C@H]([C@@H](C)OCCCCN2CCOCC2)N(C)C(=O)[C@@H](C)N(C)C1=O` [Example 6] (cyclo(A[dA][NMeL][NMeL][NMeV][X10][Abu][dNMeA][NMeT](Butyl(4-morpholino))V[NMeL])), the EC50 is more than 1000 nM.

On to `CCCC[C@@H](C)[C@@H](O)[C@H]1C(=O)N[C@@H](CC)C(=O)N(C)[C@H](C)C(=O)N(C)[C@@H]([C@@H](C)OCCCCN2CCOCC2)C(=O)N[C@@H](C(C)C)C(=O)N(C)[C@@H](CC(C)C)C(=O)N[C@@H](C)C(=O)N[C@H](C)C(=O)N(C)[C@@H](CC(C)C)C(=O)N(C)[C@@H](CC(C)C)C(=O)N(C)[C@@H](C(C)C)C(=O)N1C` [Example 7] (cyclo(A[dA][NMeL][NMeL][NMeV][NMe(dihydroBmt)][Abu][dNMeA][NMeT](Butyl(4-morpholino))V[NMeL])), for which the EC50 lay within 10 to 100 nM.

Turning to `CC[C@@H]1NC(=O)[C@H]([C@H](O)[C@H](C)CCCCOC(=O)OC)N(C)C(=O)[C@H](C(C)C)N(C)C(=O)[C@H](CC(C)C)N(C)C(=O)[C@H](CC(C)C)N(C)C(=O)[C@@H](C)NC(=O)[C@H](C)NC(=O)[C@H](CC(C)C)N(C)C(=O)[C@H](C(C)C)NC(=O)[C@H]([C@@H](C)OCCCCN2CCOCC2)N(C)C(=O)[C@@H](C)N(C)C1=O` [Example 63] (cyclo(A[dA][NMeL][NMeL][NMeV][X4][Abu][dNMeA][NMeT](Butyl(4-morpholino))V[NMeL])), the EC50 lay in the range of 10 to 100 nM.

In the case of `CCOC(=O)OCCCC[C@@H](C)[C@@H](O)[C@H]1C(=O)N[C@@H](CC)C(=O)N(C)[C@H](C)C(=O)N(C)[C@@H]([C@@H](C)OCCCCN2CCOCC2)C(=O)N[C@@H](C(C)C)C(=O)N(C)[C@@H](CC(C)C)C(=O)N[C@@H](C)C(=O)N[C@H](C)C(=O)N(C)[C@@H](CC(C)C)C(=O)N(C)[C@@H](CC(C)C)C(=O)N(C)[C@@H](C(C)C)C(=O)N1C` [Example 64] (cyclo(A[dA][NMeL][NMeL][NMeV][X8][Abu][dNMeA][NMeT](Butyl(4-morpholino))V[NMeL])), the 50% effective concentration (EC50) was 10 to 100 nM.

Regarding `CC[C@@H]1NC(=O)[C@H]([C@H](O)[C@H](C)CCCCOC(=O)N(C)C)N(C)C(=O)[C@H](C(C)C)N(C)C(=O)[C@H](CC(C)C)N(C)C(=O)[C@H](CC(C)C)N(C)C(=O)[C@@H](C)NC(=O)[C@H](C)NC(=O)[C@H](CC(C)C)N(C)C(=O)[C@H](C(C)C)NC(=O)[C@H]([C@@H](C)OCCCCN2CCOCC2)N(C)C(=O)[C@@H](C)N(C)C1=O` [Example 65] (cyclo(A[dA][NMeL][NMeL][NMeV][X5][Abu][dNMeA][NMeT](Butyl(4-morpholino))V[NMeL])), the EC50 was 10 to 100 nM.

For `CC[C@@H]1NC(=O)[C@H]([C@H](O)[C@H](C)CCCCOC(=O)N(C)OC)N(C)C(=O)[C@H](C(C)C)N(C)C(=O)[C@H](CC(C)C)N(C)C(=O)[C@H](CC(C)C)N(C)C(=O)[C@@H](C)NC(=O)[C@H](C)NC(=O)[C@H](CC(C)C)N(C)C(=O)[C@H](C(C)C)NC(=O)[C@H]([C@@H](C)OCCCCN2CCOCC2)N(C)C(=O)[C@@H](C)N(C)C1=O` [Example 66] (cyclo(A[dA][NMeL][NMeL][NMeV][X2][Abu][dNMeA][NMeT](Butyl(4-morpholino))V[NMeL])), the EC50 lay in the range of 10 to 100 nM.

In the case of `CC[C@@H]1NC(=O)[C@H]([C@H](O)[C@H](C)CCCCN=[N+]=[N-])N(C)C(=O)[C@H](C(C)C)N(C)C(=O)[C@H](CC(C)C)N(C)C(=O)[C@H](CC(C)C)N(C)C(=O)[C@@H](C)NC(=O)[C@H](C)NC(=O)[C@H](CC(C)C)N(C)C(=O)[C@H](C(C)C)NC(=O)[C@H]([C@@H](C)OCCCCN2CCOCC2)N(C)C(=O)[C@@H](C)N(C)C1=O` [Example 68] (cyclo(A[dA][NMeL][NMeL][NMeV][X9][Abu][dNMeA][NMeT](Butyl(4-morpholino))V[NMeL])), the EC50 lay within 10 to 100 nM.

Take `CC[C@@H]1NC(=O)[C@H]([C@H](O)[C@H](C)CCCCN)N(C)C(=O)[C@H](C(C)C)N(C)C(=O)[C@H](CC(C)C)N(C)C(=O)[C@H](CC(C)C)N(C)C(=O)[C@@H](C)NC(=O)[C@H](C)NC(=O)[C@H](CC(C)C)N(C)C(=O)[C@H](C(C)C)NC(=O)[C@H]([C@@H](C)OCCCCN2CCOCC2)N(C)C(=O)[C@@H](C)N(C)C1=O` [Example 69] (cyclo(A[dA][NMeL][NMeL][NMeV][X6][Abu][dNMeA][NMeT](Butyl(4-morpholino))V[NMeL])): the EC50 lay in the range of 100 to 1000 nM.

In the case of `CC[C@@H]1NC(=O)[C@H]([C@H](O)[C@H](C)CCCCNC(C)=O)N(C)C(=O)[C@H](C(C)C)N(C)C(=O)[C@H](CC(C)C)N(C)C(=O)[C@H](CC(C)C)N(C)C(=O)[C@@H](C)NC(=O)[C@H](C)NC(=O)[C@H](CC(C)C)N(C)C(=O)[C@H](C(C)C)NC(=O)[C@H]([C@@H](C)OCCCCN2CCOCC2)N(C)C(=O)[C@@H](C)N(C)C1=O` [Example 70] (cyclo(A[dA][NMeL][NMeL][NMeV][X3][Abu][dNMeA][NMeT](Butyl(4-morpholino))V[NMeL])), the EC50 is 10 to 100 nM.

Take `CC[C@@H]1NC(=O)[C@H]([C@H](O)[C@H](C)CCCCNC(=O)OC)N(C)C(=O)[C@H](C(C)C)N(C)C(=O)[C@H](CC(C)C)N(C)C(=O)[C@H](CC(C)C)N(C)C(=O)[C@@H](C)NC(=O)[C@H](C)NC(=O)[C@H](CC(C)C)N(C)C(=O)[C@H](C(C)C)NC(=O)[C@H]([C@@H](C)OCCCCN2CCOCC2)N(C)C(=O)[C@@H](C)N(C)C1=O` [Example 71] (cyclo(A[dA][NMeL][NMeL][NMeV][X1][Abu][dNMeA][NMeT](Butyl(4-morpholino))V[NMeL])): the half-maximal effective concentration (EC50) is 10 to 100 nM.

For the molecule `CCOC(=O)NCCCC[C@@H](C)[C@@H](O)[C@H]1C(=O)N[C@@H](CC)C(=O)N(C)[C@H](C)C(=O)N(C)[C@@H]([C@@H](C)OCCCCN2CCOCC2)C(=O)N[C@@H](C(C)C)C(=O)N(C)[C@@H](CC(C)C)C(=O)N[C@@H](C)C(=O)N[C@H](C)C(=O)N(C)[C@@H](CC(C)C)C(=O)N(C)[C@@H](CC(C)C)C(=O)N(C)[C@@H](C(C)C)C(=O)N1C` [Example 72] (cyclo(A[dA][NMeL][NMeL][NMeV][X7][Abu][dNMeA][NMeT](Butyl(4-morpholino))V[NMeL])), the EC50 lay within 10 to 100 nM.
